Consider one compound from patent US11667632B2, “2-(1H-indazol-3-yl)-3H-imidazo[4,5-C]pyridines and their anti-inflammatory uses thereof” (BioSplice Therapeutics, Inc., priority 2015, dated 2023).

Structures are written as SMILES.

The subject of one data set is IL-2. Briefly: Inhibition of IL-2 in LPS-stimulated primary PBMCs (MSD U-plex). The class given is cell-based. As to conditions: human PBMCs, LPS (500 ng/mL), Compound 10 (150 nM), 24 hrs; MSD platform; FIG. 15. The procedure: (§1) Primary peripheral blood mononuclear cells (PBMCs) freshly isolated from healthy human donors were obtained from AllCells Inc. and utilized for assays immediately. Compound 10 was dissolved in DMSO as a 10 mM stock and used to prepare compound source plates. A serial dilution (8-point dose-response) and compound transfer was performed using the ECHO 550 (Labcyte, Sunnyvale, Calif.) into 96-well clear bottom assay plates (Greiner Bio-One) with appropriate DMSO backfill for a final DMSO concentration of 0.05%. PBMCs were plated at 2×10e^5 cells/well in Roswell Park Memorial Institute (RPMI) 1640 Medium (Catalog #21870-100, Buffalo, N.Y.) with 1% L-glutamine, 1% HEPES, 1% Sodium Pyruvate, 2% Sodium Bicarbonate supplemented with 100 units/mL penicillin, 50 μg/mL streptomycin and 1% fetal bovine serum (Catalog #16140089, Life Technologies, Carlsbad, Calif.). […]
(§2) Supernatants were diluted appropriately for ELISA. […] Following several washes to remove unbound avidin-HRP, the TMB substrate was added and the plates were read on the Cytation 3 plate reader (Biotek Inc., Winooski, Vt.) at an absorbance of 450 nm with correction at 570 nm. […] Inhibition profile and EC50 was calculated using Prism 5 (GraphPad Software Inc, La Jolla, Calif., USA). […] Levels of cytokines were calculated using software form Meso Scale Discovery.

Data set [1] in a line: Stability and radiochemical purity of the [3H]-Compound 10 formulation incubated at 37° C. The class given is physicochemical. Here is the method:
The stability and radiochemical purity (RCP) of the radiolabeled [^3H]-Compound 10 was established in a concurrent experiment where a formulation of radiolabeled [3^H]-Compound 10 was incubated at 37° C. and radiochemical purity (RCP) of aliquots were analyzed over time and determined to be ˜ 95.5% (Days 0, 7, 14 and 30), 94.5% (Day 60), 93% (Day 90), and 83% (Day 180).

A short description of data set [2]: Quantitative whole body autoradiography and excretion of radiolabeled Compound 10 in rats. The class given is in vivo. The following applies: SD rats, two IA injections at 1 μg/knee. From the text:
In terms of excretion, 95% of the excreted radioactivity was recovered in the feces and only 5% in the urine. QWBA radiographic images and quantitation of radioactivity in the feces with much less recovery in the urine, support the hypothesis that [^3H]-Compound 10 is being eliminated by drainage in the lumbar and inguinal lymph ducts and lymph nodes, and through the small and large intestines and cecum in a mechanism consistent with slow passive fecal excretion, a major route of elimination of slowly metabolized xenobiotics. During this process, the radiolabeled [3H]-Compound 10 was degraded with only ˜1.5% of parent detected in the fecal matter.

Another data set concerns Interleukin 6 (IL-6). In words: Inhibition of IL-6 secretion in IL-1β-stimulated synovial fibroblasts (SW982), ELISA. The class given is cell-based. As to conditions: human synovial fibroblasts stimulated with IL-1β, treated 24 hrs, FIG. 14A. Here is the method:
(§3) Synovial fibroblasts (SW982 cells; ATCC) were cultured in Leibovitz's L-15 Medium (ATCC) with 10% FBS at 37° C. and 0% CO2. 24 hours before the start of the assay, media was changed to Leibovitz's L-15 Medium with […]. Compound 10 was dissolved in DMSO as a 10 mM stock and used to prepare compound source plates. A serial dilution (8-point dose-response) and compound transfer was performed using the ECHO 550 (Labcyte, Sunnyvale, Calif.) into 96-well clear bottom assay plates (Greiner Bio-One) with appropriate DMSO backfill for a final DMSO concentration of 0.05%. […] Plates were spun in a centrifuge for 1 minute at 10,000 rpm and supernatants were collected for ELISA.
(§4) Supernatants were diluted 1:1 for the TNFα assay and 1:4 for the IL6 assay using the assay medium. ELISA was performed using Human TNF-α ELISA MAX™ Deluxe (Catalog #430204, Biolegend, San Diego, Calif.) and Human IL-6 ELISA MAX™ Deluxe (Catalog #430504, Biolegend, San Diego, Calif.) kits. […] Following several washes to remove unbound avidin-HRP, the TMB substrate was added and the plates were read on the Cytation 3 plate reader (Biotek Inc., Winooski, Vt.) at an absorbance of 450 nm with correction at 570 nm. […] Inhibition profile and EC50 was calculated using Prism 5 (GraphPad Software Inc, La Jolla, Calif., USA).

Another data set concerns IFN-γ. Briefly: Inhibition of IFN-γ in LPS-stimulated primary PBMCs (MSD U-plex). The following applies: human PBMCs, LPS (500 ng/mL), Compound 10 (150 nM), 24 hrs; MSD platform; FIG. 15. The class given is cell-based. The procedure:
as §1, §2

The subject of data set [3] is Tumor Necrosis Factor Alpha (TNF-α). In words: Inhibition of TNF-α secretion in IL-1β-stimulated synovial fibroblasts (SW982), ELISA. The class given is cell-based. As to conditions: human synovial fibroblasts stimulated with IL-1β, treated 24 hrs, FIG. 14A. The procedure:
as §3, §4

Turning to `CC(C)CC(=O)Nc1cncc(-c2ccc3[nH]nc(-c4nc5c(-c6cccc(F)c6)cncc5[nH]4)c3c2)c1` [Compound 10], in the data set on IL-2, the “Inhibition of IL-2” value is “Inhibition”. For the same compound, the “radiochemical purity (RCP) of formulation over time” value in data set [1] (Day 60) is listed as 94.5%; in data set [1] (Day 90), 93%; in data set [1] (Day 180), 83%; in data set [1] (Days 0, 7, 14 and 30) it was roughly 95.5%. Also, in data set [2], the “excreted radioactivity recovered in the feces” value stood at 95%. Besides, in data set [2], the “excreted radioactivity recovered in the urine” value came out at 5%. The “parent detected in the fecal matter” value in data set [2] is listed as roughly 1.5%. The “total radioactivity recovered from the whole carcass, feces, urine and cage wash” value in data set [2] (QWBA) is reported as roughly 75%. Also, in data set [2] (at 1 hour and up to 168 hours post-IA injection), the “radioactivity in major organs” value is on record as “negligible/undetectable”. In addition, the “inhibition of IL-6 secretion” value in the data set with Interleukin 6 (IL-6) was “inhibition”. Besides, the “Inhibition of IFN-γ” value in the data set with IFN-γ was “Inhibition”. Besides, the “inhibition of TNF-a secretion” value in data set [3] is “inhibition”.
